≈ marks a conversion by molar mass, not a printed value. Like-named read-outs stand apart in the source and are kept apart here. Where a SMILES comes first, the peptide text is derived from it.
Tests used:
[1] = test system: DBI001; test: Biolog phenotype MicroArrays: components enhancing function (efficacy) against fungal or bacterial pathogens; assay type: cell-based; conditions: enhancing function of human-derived Janthinobacterium lividum
[2] = test system: DB00118; test: Antibiotic MIC tests; assay type: cell-based, Janthinobacterium lividum; conditions: strain DB00118
Experimental: (§1) The antibiotic resistance profile and MICs tests were performed using Janthinobacterium lividum grown from cultures purified and grown in vegitone LB broth.

[3] = test system: DB00121; test: Antibiotic MIC tests; assay type: cell-based, Janthinobacterium lividum; conditions: strain DB00121
Experimental: as §1

[4] = test system: DB02378; test: Antibiotic MIC tests; assay type: cell-based, Janthinobacterium lividum; conditions: strain DB02378
Experimental: as §1

[5] = test system: DB02473; test: Antibiotic MIC tests; assay type: cell-based, Janthinobacterium lividum; conditions: strain DB02473
Experimental: as §1

[6] = test system: E. Coli ATCC25922; test: Antibiotic MIC tests; assay type: cell-based; conditions: Escherichia coli
[7] = Janthinobacterium lividum, read-out: MIC

O=C1CCC(C(=O)O)O1 (stereo not drawn) [α-Hydroxy Glutaric Acid-g-Lactone]
Concentration Range of Efficacy [1]: 2 to 20 mM

CN(C)[C@@H]1C(O)=C(C(N)=O)C(=O)[C@@]2(O)C(O)=C3C(=O)c4c(O)cccc4[C@@](C)(O)[C@H]3C[C@@H]12 [Tetracycline]
MIC [2, 7]: 0.5 µg/mL (≈ 1.13 µM) | MIC [3, 7]: 0.25 µg/mL (≈ 0.563 µM) | MIC [4, 7]: 0.5 µg/mL (≈ 1.13 µM) | MIC [5, 7]: 0.5 µg/mL (≈ 1.13 µM) | MIC [6]: 1 µg/mL (≈ 2.25 µM)

Tween 40
Concentration Range of Efficacy [1]: 2 to 20 mM

O=P(O)(O)O[C@H]1O[C@H](CO)[C@@H](O)[C@H](O)[C@H]1O [D-Glucose-1-Phosphate]
Concentration Range of Efficacy [1]: 2 to 20 mM

O=C(O)[C@@H](O)[C@H](O)C(=O)O [D-Tartaric acid]
Concentration Range of Efficacy [1]: 1 to 5 mM

Glycogen
Concentration Range of Efficacy [1]: 1 to 5 mM

OC[C@@H](O)C(O)[C@H](O)CO [D-Arabitol]
Concentration Range of Efficacy [1]: 1 to 5 mM

CC(O)CO (centres unmarked) [1,2-Propanediol]
Concentration Range of Efficacy [1]: 2 to 20 mM

CO[C@@H]1O[C@H](CO)[C@@H](O)[C@H](O)[C@H]1O [β-Methyl-D-Galactoside]
Concentration Range of Efficacy [1]: 1 to 5 mM

CN(C)c1ccc(O)c2c1C[C@H]1C[C@H]3[C@H](N(C)C)C(O)=C(C(N)=O)C(=O)[C@@]3(O)C(O)=C1C2=O [Minocycline]
MIC [3, 7]: < 0.063 µg/mL | MIC [5, 7]: 0.25 µg/mL (≈ 0.546 µM) | MIC [6]: 0.25 µg/mL (≈ 0.546 µM)

Nc1ncnc2c1ncn2C1CC(O)C(CO)O1 (centres unmarked) [2-Deoxy Adenosine]
Concentration Range of Efficacy [1]: 2 to 20 mM

OC[C@@H](O)[C@H](O)[C@H](O)[C@@H](O)CO [Dulcitol]
Concentration Range of Efficacy [1]: 2 to 20 mM

COC1OC(CO)C(O)C(O)C1O [α-Methyl-D-Mannoside]
Concentration Range of Efficacy [1]: 1 to 5 mM

Laminarin
Concentration Range of Efficacy [1]: 1 to 5 mM

OC[C@H]1O[C@H](OCC2O[C@@H](O)[C@H](O)[C@@H](O)[C@@H]2O)[C@H](O)[C@@H](O)[C@H]1O (stereo partly drawn) [D-Melibiose]
Concentration Range of Efficacy [1]: 2 to 20 mM

COC1OCC(O)C(O)C1O [β-Methyl-D-Xyloside]
Concentration Range of Efficacy [1]: 1 to 5 mM

CO[C@@H]1O[C@H](CO)[C@@H](O)[C@H](O)[C@H]1O [β-Methyl-D-Glucoside]
Concentration Range of Efficacy [1]: 2 to 20 mM

Maltotriose
Concentration Range of Efficacy [1]: 2 to 20 mM

OC[C@H]1O[C@@](CO)(O[C@H]2O[C@H](CO)[C@@H](O)[C@H](O)[C@H]2O)[C@@H](O[C@H]2O[C@H](CO)[C@@H](O)[C@H](O)[C@H]2O)[C@@H]1O [D-Melezitose]
Concentration Range of Efficacy [1]: 1 to 5 mM

C[C@H]1COc2c(N3CCN(C)CC3)c(F)cc3c(=O)c(C(=O)O)cn1c23 [Levofloxacin]
MIC [2, 7]: 0.25 µg/mL (≈ 0.692 µM) | MIC [4, 7]: 0.25 µg/mL (≈ 0.692 µM) | MIC [5, 7]: 0.25 µg/mL (≈ 0.692 µM) | MIC [6]: 0.063 µg/mL (≈ 0.174 µM)

CCC[C@@H]1C[C@@H](C(=O)N[C@@H]([C@H]2O[C@H](SC)[C@H](O)[C@@H](O)[C@H]2O)[C@H](C)Cl)N(C)C1 [Clindamycin]
MIC [2, 7]: 32 µg/mL (≈ 75.3 µM) | MIC [3, 7]: 16 µg/mL (≈ 37.6 µM) | MIC [4, 7]: 32 µg/mL (≈ 75.3 µM) | MIC [5, 7]: 16 µg/mL (≈ 37.6 µM) | MIC [6]: < 64 µg/mL

Chondroitin Sulfate C
Concentration Range of Efficacy [1]: 1 to 5 mM

OC[C@H]1O[C@H](OC[C@H]2O[C@H](OC[C@H]3O[C@H](O[C@]4(CO)O[C@H](CO)[C@@H](O)[C@@H]4O)[C@H](O)[C@@H](O)[C@@H]3O)[C@H](O)[C@@H](O)[C@H]2O)[C@H](O)[C@@H](O)[C@H]1O [Stachyose]
Concentration Range of Efficacy [1]: 1 to 5 mM

O=C[C@@H](O)[C@H](O[C@@H]1O[C@H](CO)[C@H](O)[C@H](O)[C@H]1O)[C@H](O)CO [3-0-β-D-Galactopyranosyl-D Arabinose]
Concentration Range of Efficacy [1]: 1 to 5 mM

OC[C@@H](O)[C@@H](O)CO [i-Erythritol]
Concentration Range of Efficacy [1]: 1 to 5 mM

OC[C@H]1O[C@@H]2O[C@H]3[C@H](O)[C@@H](O)[C@@H](O[C@H]4[C@H](O)[C@@H](O)[C@@H](O[C@H]5[C@H](O)[C@@H](O)[C@@H](O[C@H]6[C@H](O)[C@@H](O)[C@@H](O[C@H]7[C@H](O)[C@@H](O)[C@@H](O[C@H]8[C@H](O)[C@@H](O)[C@@H](O[C@H]1[C@H](O)[C@H]2O)O[C@@H]8CO)O[C@@H]7CO)O[C@@H]6CO)O[C@@H]5CO)O[C@@H]4CO)O[C@@H]3CO [β-Cyclodextrin]
Concentration Range of Efficacy [1]: 1 to 5 mM

Neomycin
MIC [2]: 2 µg/mL | MIC [3]: 1 µg/mL | MIC [4]: 2 µg/mL | MIC [5]: 2 µg/mL

O=CC[C@H](O)[C@H](O)CO [2-Deoxy-DRibose]
Concentration Range of Efficacy [1]: 1 to 5 mM

CC(O)C(N)=O (racemic) [D,L-Lactamide]
Concentration Range of Efficacy [1]: 0.1 to 1 mM

CO/N=C(\C(=O)N[C@@H]1C(=O)N2C(C(=O)O)=C(CSc3nc(=O)c(=O)[nH]n3C)CS[C@H]12)c1csc(N)n1 [Ceftriaxone]
MIC [2, 7]: 0.5 µg/mL (≈ 0.902 µM) | MIC [3, 7]: 0.25 µg/mL (≈ 0.451 µM) | MIC [4, 7]: 0.25 µg/mL (≈ 0.451 µM) | MIC [5, 7]: 0.5 µg/mL (≈ 0.902 µM) | MIC [6]: < 0.063 µg/mL

O=C(O)[C@H]1OC(O)[C@H](O)[C@@H](O)[C@@H]1O (stereo partly drawn) [D-Glucoronic Acid]
Concentration Range of Efficacy [1]: 2 to 20 mM

OC[C@H]1O[C@@H]2O[C@H]3[C@H](O)[C@@H](O)[C@@H](O[C@H]4[C@H](O)[C@@H](O)[C@@H](O[C@H]5[C@H](O)[C@@H](O)[C@@H](O[C@H]6[C@H](O)[C@@H](O)[C@@H](O[C@H]7[C@H](O)[C@@H](O)[C@@H](O[C@H]1[C@H](O)[C@H]2O)O[C@@H]7CO)O[C@@H]6CO)O[C@@H]5CO)O[C@@H]4CO)O[C@@H]3CO [α-Cyclodextrin]
Concentration Range of Efficacy [1]: 1 to 5 mM

OC[C@H](O)C(O)[C@@H](O)CO [L-Arabitol]
Concentration Range of Efficacy [1]: 1 to 5 mM

Inulin
Concentration Range of Efficacy [1]: 1 to 5 mM

COC1OC(CO)C(O)C(O)C1O [α-Methyl-D-Galactoside]
Concentration Range of Efficacy [1]: 2 to 20 mM

O=P(O)(O)OCC(O)CO (racemic) [D,L-α-Glycerol Phosphate]
Concentration Range of Efficacy [1]: 2 to 20 mM

O=C(CO)[C@@H](O)[C@H](O)[C@H](O)CO [D-Fractose]
Concentration Range of Efficacy [1]: 2 to 20 mM

Mannan
Concentration Range of Efficacy [1]: 1 to 5 mM

C[C@H](N)C(=O)N[C@@H](CCC(=O)O)C(=O)O [Ala-Glu] (H-Ala-Glu-OH)
Concentration Range of Efficacy [1]: 0.1 to 1 mM

O=C(CO)[C@@H](O[C@H]1O[C@H](CO)[C@@H](O)[C@H](O)[C@H]1O)[C@H](O)[C@H](O)CO [Turanose]
Concentration Range of Efficacy [1]: 1 to 5 mM

N[C@@H](C(=O)O)[C@@H](O)[C@H](O)[C@H](O)CO [D-Glucosaminic Acid]
Concentration Range of Efficacy [1]: 2 to 20 mM

OC[C@@]12OC[C@@H](O1)[C@@H](O)[C@@H](O)[C@@H]2O [Sedoheptulosan]
Concentration Range of Efficacy [1]: 1 to 5 mM

OC[C@H]1O[C@@H](O[C@H]2[C@H](O)[C@@H](O)[C@H](O)O[C@@H]2CO)[C@H](O)[C@@H](O)[C@@H]1O [D-Cellobiose]
Concentration Range of Efficacy [1]: 2 to 20 mM

CO/N=C(\C(=O)N[C@@H]1C(=O)N2C(C(=O)[O-])=C(C[N+]3(C)CCCC3)CS[C@H]12)c1csc(N)n1 [Cefepime]
MIC [2, 7]: 0.25 µg/mL (≈ 0.52 µM) | MIC [6]: < 0.063 µg/mL

CC[C@H]1OC(=O)[C@H](C)[C@@H](O[C@H]2C[C@@](C)(OC)[C@@H](O)[C@H](C)O2)[C@H](C)[C@@H](O[C@@H]2O[C@H](C)C[C@H](N(C)C)[C@H]2O)[C@](C)(O)C[C@@H](C)CN(C)[C@H](C)[C@@H](O)[C@]1(C)O [Azithromycin]
MIC [2, 7]: 8 µg/mL (≈ 10.7 µM) | MIC [3, 7]: 0.5 µg/mL (≈ 0.668 µM) | MIC [4, 7]: 2 µg/mL (≈ 2.67 µM) | MIC [5, 7]: 1 µg/mL (≈ 1.34 µM) | MIC [6]: 8 µg/mL (≈ 10.7 µM)

NC(N)=O [Urea]
Concentration Range of Efficacy [1]: 0.1 to 1 mM

OC[C@@H](O)[C@@H](O[C@H]1O[C@H](CO)[C@@H](O)[C@H](O)[C@H]1O)[C@H](O)[C@@H](O)CO [Maltitol]
Concentration Range of Efficacy [1]: 1 to 5 mM

dextrin
Concentration Range of Efficacy [1]: 1 to 5 mM

O=[N+]([O-])O [Nitrate]
Concentration Range of Efficacy [1]: 0.1 to 1 mM

CO[C@H]1O[C@H](CO)[C@@H](O)[C@H](O)[C@H]1O [α-Methyl-D-Glucoside]
Concentration Range of Efficacy [1]: 1 to 5 mM

CO[C@@H]1O[C@H](C(=O)O)[C@@H](O)[C@H](O)[C@H]1O [β-Methyl-D-Glucuronic Acid]
Concentration Range of Efficacy [1]: 1 to 5 mM

Pectin
Concentration Range of Efficacy [1]: 1 to 5 mM

OC[C@H]1O[C@@H]2O[C@H]3[C@H](O)[C@@H](O)[C@@H](O[C@H]4[C@H](O)[C@@H](O)[C@@H](O[C@H]5[C@H](O)[C@@H](O)[C@@H](O[C@H]6[C@H](O)[C@@H](O)[C@@H](O[C@H]7[C@H](O)[C@@H](O)[C@@H](O[C@H]8[C@H](O)[C@@H](O)[C@@H](O[C@H]9[C@H](O)[C@@H](O)[C@@H](O[C@H]1[C@H](O)[C@H]2O)O[C@@H]9CO)O[C@@H]8CO)O[C@@H]7CO)O[C@@H]6CO)O[C@@H]5CO)O[C@@H]4CO)O[C@@H]3CO [g-Cyclodextrin]
Concentration Range of Efficacy [1]: 1 to 5 mM

O=NO [Nitrite]
Concentration Range of Efficacy [1]: 0.1 to 1 mM

OC[C@H]1O[C@H](OC[C@H]2OC(O)(CO)[C@@H](O)[C@@H]2O)[C@H](O)[C@@H](O)[C@@H]1O (some centres unmarked) [Palatinose]
Concentration Range of Efficacy [1]: 1 to 5 mM

Source: patent US12064459B2, “Compositions and methods for improving skin health and for the treatment and prevention of diseases, disorders and conditions associated with pathogenic microbes” (priority 2019, dated 2024)
